From patent publication US20030068615A1, “Polypeptides that bind HIV gp120 and related nucleic acids, antibodies, compositions, and methods of use” (priority 1999, published 2003)
“And” between values parts separate entries of the source, which are not always exact repeats. Identical values can stand only once. Like-named read-outs stand apart in the source and are kept apart here.

Molecular target: HIV-1LAI envelope gp120 (Human immunodeficiency virus type 1 group M subtype B, UniProt P03377)
Format: binding
Conditions: for Counts per 20′ Average-background: CCR5 18-mer scan, radiolabeled HIV-1LAI gp120; for number of radioactive decays (counts) counted: human CD4 21-mer scan, empty control 2075; for Relative % of Control: mean of two syntheses and binding experiments ± average deviation, wild-type = 100%
[1] = Panel B, 15-mers and 18-mers of CD4, empty control 575
[2] = Panel D, 9-mers and 12-mers of CD4, empty control […]
[3] = Panel F, sequential alanine replacements of CD4 polypeptides, duplicate series, empty control 569
[4] = Panel A, 21-mers of CD4, empty control 515 and 617
[5] = Panel C, 15-mers and 18-mers of CD4, empty control 556
[6] = STRL33 18-mer scan, background subtracted, first of two count columns
[7] = STRL33 18-mer scan, background subtracted, second of two count columns
[8] = CXCR4 18-mer scan, background subtracted, empty control 0
[9] = CXCR4 18-mer scan, empty control 412
[10] = Panel E, 9-mers and 12-mers of CD4, empty control 571

RNYLLVFFQKHIAKRFCK
Counts per 20′ Average-background (background subtracted): 65 counts per 20′

VQLLVFGLTANSDTHLLQ
COUNTS of radiolabeled gp120 retained [1]: 673 counts

IEDSDTYICEVE
COUNTS of radiolabeled gp120 retained [2]: 1107 counts

THLAQGQSLTLTLES
COUNTS of radiolabeled gp120 retained [3]: 7701 counts and 5120 counts

VYKKEGEQVEFSFPLAFTVEK [human CD4 211-231]
COUNTS of radiolabeled gp120 retained [4]: 2429 counts | number of radioactive decays (counts) counted: 14740 counts

LKIEDSDTYICEVED
COUNTS of radiolabeled gp120 retained [1]: 846 counts

EKLTGSGELWWQAER
COUNTS of radiolabeled gp120 retained [5]: 683 counts

FWAHYAAAQWDFGNTMCQ [CCR5 segment 85-]
Counts per 20′ Average-background (background subtracted): 212 counts per 20′

KLICGYHDEAISTVVLAT [STRL33 segment 177-194]
radioactive counts recorded in twenty minutes [6]: 1363.5 counts | radioactive counts recorded in twenty minutes [7]: 1604.5 counts

HFPYSQYQFWKNFQTLKI
Counts per 20′ Average-background (background subtracted): 1008 counts per 20′

SRGSSLKILSKGKRGGHS [CXCR4 segment 321-338]
radioactive counts recorded in twenty minutes [8]: 169 counts | radioactive counts recorded in twenty minutes [9]: 581 counts

LLRCRNEKKRHRAVRLIF
Counts per 20′ Average-background (background subtracted): 102 counts per 20′

SIVYKKEGE
COUNTS of radiolabeled gp120 retained [10]: 566 counts

YDSMKEPCFREENANFNK [CXCR4 segment 21-38]
radioactive counts recorded in twenty minutes [8]: 53 counts | radioactive counts recorded in twenty minutes [9]: 465 counts

HKWISITEALAFFHCCLN [CXCR4 segment 281-298]
radioactive counts recorded in twenty minutes [8]: 163 counts | radioactive counts recorded in twenty minutes [9]: 575 counts

TYICEVEDQ
COUNTS of radiolabeled gp120 retained [2]: 805 counts

EVQLLVFGLTANSDT
COUNTS of radiolabeled gp120 retained [1]: 2689 counts

KEGEQVEFSFPLAFTVEKLTG
COUNTS of radiolabeled gp120 retained [4]: 972 counts

LTANSDTHLLQGQSLTLT
COUNTS of radiolabeled gp120 retained [1]: 528 counts

ATNSQRPRKLLAEKVVYV
radioactive counts recorded in twenty minutes [8]: 78 counts | radioactive counts recorded in twenty minutes [9]: 490 counts

AFQKASSIVYKKEGEQVEFSF
COUNTS of radiolabeled gp120 retained [4]: 3775 counts

LLFVITLPFWAVDAVANW
radioactive counts recorded in twenty minutes [8]: 63 counts | radioactive counts recorded in twenty minutes [9]: 475 counts

NFPLIIKNLKIEDSDTYI
COUNTS of radiolabeled gp120 retained [1]: 627 counts

EEVQLLVAGLTANSD
COUNTS of radiolabeled gp120 retained [3]: 9573 counts and 11480 counts

VISLLVSLPQIIYGNVFN
radioactive counts recorded in twenty minutes [6]: −60.5 counts | radioactive counts recorded in twenty minutes [7]: −127.5 counts

EEVQLLVFGLTAASD
COUNTS of radiolabeled gp120 retained [3]: 19200 counts and 19390 counts

ASSIVYKKE
COUNTS of radiolabeled gp120 retained [10]: 600 counts

IVYKKEGEQVEF
COUNTS of radiolabeled gp120 retained [10]: 533 counts

CEVEDQKEEVQLLVF
COUNTS of radiolabeled gp120 retained [1]: 1729 counts

LAFTVEKLTGSGELW
COUNTS of radiolabeled gp120 retained [5]: 579 counts

VEFSFPLAFTVEKLTGSGELW
COUNTS of radiolabeled gp120 retained [4]: 633 counts

MEGISIYTSDNYTEEMGS
radioactive counts recorded in twenty minutes [8]: 2591 counts | radioactive counts recorded in twenty minutes [9]: 3003 counts | Relative % of Control (CXCR4 (1-18) alanine variants): 100%

THLLQGQSLTLT
COUNTS of radiolabeled gp120 retained [2]: 646 counts

VLQNQKKVEFKI
COUNTS of radiolabeled gp120 retained [10]: 503 counts

TYICEVEDQKEEVQL
COUNTS of radiolabeled gp120 retained [1]: 956 counts

PLIIKNLKIEDS
COUNTS of radiolabeled gp120 retained [2]: 565 counts

MDYQVSAPIYDINYYTSE
Relative % of Control (CCR5 (1-18) alanine variants): 56 ± 2%

NSIYLVISIFYHKLQSLT [STRL33 segment 49-66]
radioactive counts recorded in twenty minutes [6]: 1255.5 counts | radioactive counts recorded in twenty minutes [7]: 1378.5 counts

EVEDQKEEVQLL
COUNTS of radiolabeled gp120 retained [2]: 508 counts

SDTHLLQGQSLTLTL
COUNTS of radiolabeled gp120 retained [1]: 747 counts

LPLLVMVICYSGILKTLL [CCR5 segment 205-]
Counts per 20′ Average-background (background subtracted): 68 counts per 20′

KKVEFKIDI
COUNTS of radiolabeled gp120 retained [10]: 501 counts

VLAFQKASSIVYKKEGEQ
COUNTS of radiolabeled gp120 retained [5]: 549 counts

SITEALAFFHCCLNPILY [CXCR4 segment 285-302]
radioactive counts recorded in twenty minutes [8]: 188 counts | radioactive counts recorded in twenty minutes [9]: 600 counts

GKLHQEVNLVVMRATQLQKNL [human CD4 306-326]
number of radioactive decays (counts) counted: 1776 counts

VVLAFQKASSIV
COUNTS of radiolabeled gp120 retained [10]: 567 counts

MNRGVPFRRLLLVLQLALLPA [human CD4 1-21]
number of radioactive decays (counts) counted: 3587 counts

MEGASIYTSDNYTEEMGS
Relative % of Control (CXCR4 (1-18) alanine variants): 6 ± 0.3%

MAYQVSSPIYDINYYTSE [CCR5 (1-18) variant D2A]
Relative % of Control (CCR5 (1-18) alanine variants): 125 ± 8%

NLKIEDSDT
COUNTS of radiolabeled gp120 retained [2]: 512 counts

EQVEFSFPL
COUNTS of radiolabeled gp120 retained [10]: 1032 counts

TVLQNQKKVEFKIDI
COUNTS of radiolabeled gp120 retained [5]: 587 counts

KIDIVVLAF
COUNTS of radiolabeled gp120 retained [10]: 665 counts

KKEGEQVEFSFPLAFTVEKLT
COUNTS of radiolabeled gp120 retained [4]: 1847 counts

SQYQFWKNFQTLKIVILG [CCR5 segment 185-]
Counts per 20′ Average-background (background subtracted): 1572 counts per 20′

LTMIVCYSVIIKTLLHAG [STRL33 segment 205-222]
radioactive counts recorded in twenty minutes [6]: 2787.5 counts | radioactive counts recorded in twenty minutes [7]: 2654.5 counts

GEQVEFSFPAAFTVE
COUNTS of radiolabeled gp120 retained (Panel G, alanine replacements and serial truncations (Z) of CD4 polypeptides, empty control 580): 10024 counts and 10589 counts

VEFKIDIVVLAFQKA
COUNTS of radiolabeled gp120 retained [5]: 1005 counts

NFPLIIKNLKIEDSD
COUNTS of radiolabeled gp120 retained [1]: 654 counts

QVEFSFPLA
COUNTS of radiolabeled gp120 retained [10]: 1205 counts

GYHDEAISTVVLATQMTL
radioactive counts recorded in twenty minutes [6]: 754.5 counts | radioactive counts recorded in twenty minutes [7]: 1181.5 counts

KKVEFKIDIVVLAFQKAS
COUNTS of radiolabeled gp120 retained [5]: 912 counts

IDIVVLAFQKASSIV
COUNTS of radiolabeled gp120 retained [5]: 865 counts

CTVLQNQKKVEFKIDIVV
COUNTS of radiolabeled gp120 retained [5]: 553 counts

QGNFPLIIKNLKIEDSDT
COUNTS of radiolabeled gp120 retained [1]: 564 counts

SSIVYKKEGEQVEFSFPLAFT
COUNTS of radiolabeled gp120 retained [4]: 28068 counts

IVVLAFQKASSI
COUNTS of radiolabeled gp120 retained [10]: 548 counts

NSDTHLLQGQSL
COUNTS of radiolabeled gp120 retained [2]: 585 counts

KKEGEQVEFSFPLAF
COUNTS of radiolabeled gp120 retained [5]: 1921 counts

GEQVEFSFPLAF
COUNTS of radiolabeled gp120 retained [10]: 1729 counts

MDAQVSSPIYDINYYTSE [CCR5 (1-18) variant Y3A]
Relative % of Control (CCR5 (1-18) alanine variants): 51 ± 2%

LNTFQEFFGLNNCSSSNR [CCR5 segment 257-]
Counts per 20′ Average-background (background subtracted): 293 counts per 20′

MDYQVSSPIYDINYYASE
Relative % of Control (CCR5 (1-18) alanine variants): 78 ± 34%

EDSDTYICEVED
COUNTS of radiolabeled gp120 retained [2]: 956 counts

YGFSSFNDSSQEEHQAFL
Binding Results For Window Length (counts bound-background), 9 (STRL33 amino terminus, 9-mer starting at the first residue of the printed sequence, background subtracted): 345 counts | Binding Results For Window Length (counts bound-background), 12 (STRL33 amino terminus, 12-mer starting at the first residue of the printed sequence, background subtracted): 745 counts | Binding Results For Window Length (counts bound-background), 15 (STRL33 amino terminus, 15-mer starting at the first residue of the printed sequence, background subtracted): 645 counts | Binding Results For Window Length (counts bound-background), 18 (STRL33 amino terminus, 18-mer starting at the first residue of the printed sequence, background subtracted): 1138 counts

FSFPLAFTV
COUNTS of radiolabeled gp120 retained [10]: 472 counts

LILINCKRLKSMTDIYLL [CCR5 segment 53-70]
Counts per 20′ Average-background (background subtracted): 2 counts per 20′

EDQKEEVQLLVF
COUNTS of radiolabeled gp120 retained [2]: 1379 counts

KLTGSGELWWQAERASSSKSW [human CD4 231-251]
number of radioactive decays (counts) counted: 1878 counts

LLVFGLTANSDTHLLQGQ
COUNTS of radiolabeled gp120 retained [1]: 568 counts

IDSFILLEIIKQGCEFEN [CXCR4 segment 261-278]
radioactive counts recorded in twenty minutes [8]: 3472 counts | radioactive counts recorded in twenty minutes [9]: 3884 counts
